In US20100240656A1, “COMPOUNDS AS HSP90 INHIBITORS” (ORYZON GENOMICS, S.A., priority 2007, published 2010):
pEC50, pIC50, pKd: −log10 of the molar value. Where two headings read alike, the source gives them in different places.

Tests used:
[1] = target: T1, Hsp90α (Homo sapiens, UniProt P07900); test: Fluorescence polarization binding isotherms of tracers with Hsp90α; settings: fitted to a 1:1 binding model; read-out: dissociation constant (KD) tracer / Hsp90α
T1 construct: purchased Stressgen Bioreagents SPP-776
Description: (§1) Once compounds of examples 37 and 41 were synthesized as reported above, they were dissolved at 238 μM and 1 mM in DMSO respectively (Sigma-Aldrich, cat. No. 154938). Hsp90α was purchased from Stressgen Bioreagents (cat. No. SPP-776; Victoria, Canada). The assay buffer contained 100 mM Tris·HCl, pH 7.4, 20 mM KCl, 6 mM MgCl2. Before each use 5 μg/mL bovine serum albumin (BSA, Pierce, Rockford (Ill.), cat No. 23209), 0.25 mM TCEP (Sigma, cat No. 64706) and 0.01% NP40 (Nonidet P40 Substitute, Fluka, cat No. 74385) were freshly added (cf. Howes et al., “A fluorescence polarization assay for inhibitors of Hsp90”, Analytical Biochemistry, 2006, vol. 350, p. 202-213; Kim et al., “Development of a fluorescence polarization assay for the molecular chaperone Hsp90”, J. Biomol. Screen., 2004, vol. 9 (5)).
Fluorescence polarization measurements were performed on an Infinite F200 (Tecan, Austria). […] A beam splitter filter directs the polarized excitation light into the well, and emitted fluorescence transmits back through the same beam-splitter filter, through a polarizer filter, and then through a 535 nm (25-nm bandwidth) emission filter for detection (Kim et al., supra). The read time per well was 20 μs, and the number of reads per well was 25. […]

[2] = system: MCF-7; test: Cell growth inhibition by AlamarBlue method, MCF-7; format: cell-based, human; settings: MCF-7, 72 hours, read-out: Cell growth inhibition values (EC50) obtained with AlamarBlue method
Description: (§2) The human colon cancer cell line HCT-116 and the human breast cell lines MCF-7 and SKBr3 were from the American Type Culture Collection (ATCC; CCL-247, HTB-22 and HTB-30, respectively).
(§3) The HCT-116 and SKBr3 cell lines were maintained in DMEM GlutaMAX (Invitrogen) supplemented with 10% fetal calf serum and the MCF-7 cell line was maintained in RPMI1640 GlutaMAX (Invitrogen) containing 1 mM sodium pyruvate and 10% fetal calf serum. Cells were grown in a humidified incubator at 37° C. in 5% CO2
(§4) Cells were plated in 96-well plates (Costar, 3596) at a density of 6000 cells/well in 50 μL medium 24 h before addition of the compounds. Compounds were then added in 8 concentrations, each in triplicate (dilution series of 1 to 3). To do so, a compound-dilution plate at 200× the screening concentrations was prepared in DMSO 100% (Sigma, 154938). Then, 1.7 μL of the 200× diluted compounds were transferred to a new plate and 170 μL of media were added and mixed with the pipette (plate at 2×). Columns 11 and 12 of this plate (controls) were filled with 1% DMSO in cell media (i.e. 1.7 μL DMSO and 170 μL cell media). Finally, 50 μL of this intermediate plate at 2× were transferred to the plate containing the seeded cells and slowly shaken manually. Cells were grown as described above. AlamarBlue viability assay (Biosource, Invitrogen, DAL1100) was performed 72 hours later following manufacturer's protocol. In brief, AlamarBlue diluted in media was added to cells to have a 5% solution (a 2× solution was prepared in media and 100 μL of this solution were transferred to each well, i.e. final volume of 200 μL). Cells were incubated at 37° C., 3 hours and at room temperature for an additional 30 min. Cells with no compound and, cells with no compound and lysed with triton X-100 (30 μL/well added 10 min before treatment with AlamarBlue) were used as controls (6 replicates of each). Fluorescence was monitored at 530 nm excitation and 590 nm emission wavelengths. Results were quantified using ELx800 Universal Microplate Reader (Bio-Tek Instruments, Inc.). EC50 were calculated as the dose of compound required to inhibit cell growth by 50%.

[3] = system: HCT-116; test: Cell growth inhibition by AlamarBlue method, HCT-116; format: cell-based; settings: Homo sapiens; HCT-116, 72 hours; read-out: Cell growth inhibition values (EC50) obtained with AlamarBlue method
Description: as §2, §3, §4

[4] = target: T1, Hsp90α; test: Human Hsp90α fluorescence polarization competition assay with Example 37 tracer; settings: displacement of 50 nM example 37 tracer, 125 nM Hsp90α, 1 h 30 min, 20° C.; read-out: Relative binding affinity values (IC50) obtained from FP measurements
Text: The aim of this study was to determine the binding ability of compounds of the invention to the N-terminal ATP binding site of Hsp90. For that purpose competition assays with fluorescently labeled Hsp90 binders were used (compounds of examples 37 and 41).
Compounds of examples 37 and 41 are structurally based on 8-(6-Iodo-benzo[1,3]dioxol-5-ylsulfanyl)-9-(3-isopropylamino-propyl)-9H-purin-6-ylamine, a known binder of the N-terminal ATP binding site of Hsp90 which has the ability of inhibiting the Hsp90 function (cf. Chiosis G. et al. “Identification of Potent Water Soluble Purine-Scaffold Inhibitors of the Heat Shock Protein 90”, J. Med. Chem., 2006, vol. 49, no. 1, p. 381). Compounds 37 and 41 keep the essential structural features of the known binder (which means that said compounds are able to bind to the ATP binding site) and incorporate a fluorescent probe which allows the detection of the binding by fluorescence polarization.
When the binders of examples 37 and 41 are used in the competition assay, in a first step said binders are allowed to interact with the N-terminal ATP binding site of Hsp90. Then the compounds of the invention are added and it is determined if they are able to bind to the N-terminal ATP binding site (which will imply that the binders of examples 37 and 41 have been replaced from the N-terminal ATP binding site). If after performing the assay, the binding between the tested compound of the invention and the Hsp90 is observed, this will be indicative that the compound of the invention has been bound to the ATP binding site of Hsp90 and, therefore, can inhibit the Hsp90.
as §1
Fluorescence polarization measurements were performed on an Infinite F200 (Tecan, Austria). Measurements were taken in black 96-well microplates (Corning Costar No. 3650) in which both the excitation and the emission occurred from the top of the wells. In the Infinite F200, a xenon arc lamp provides excitation light that passes through a 485 nm (20-nm bandwidth) excitation filter and then a polarizer filter. A beam splitter filter directs the polarized excitation light into the well, and emitted fluorescence transmits back through the same beam-splitter filter, through a polarizer filter, and then through a 535 nm (25-nm bandwidth) emission filter for detection (Kim et al., supra). The read time per well was 20 μs, and the number of reads per well was 25.
Compounds were assayed over a three-fold dilution series in a 96-well plate format to determine IC50 values. The serial dilution was performed in a separate 96-well plate (Thermowell 96 well PCR plate, Non-Treated Polypropylene, Corning Costar No. 6551) at 50 times final assay concentration in DMSO. (Howes et al, supra). 2 μl of compound was transferred to a black 96-well plate (Corning Costar No. 3650) and 98 μL of reaction solution (100 mM Tris·HCl, pH 7.4, 20 mM KCl, 6 mM MgCl2, 5 μg/mL bovine serum albumin (BSA), 0.25 mM TCEP, 0.01% NP40, 50 nM the compound of example 37, 125 nM Hsp90α) was added per well. The plate was allowed to equilibrate for 1 h 30 min on a slow moving shaker at 20° C. in the dark. […]

[5] = system: Hsp90 client proteins (c-Raf-1, Cdk4, Her2) and co-chaperone Hsp70; settings: literature (Banerji U. et al.); cited from earlier work
[6] = system: SKBr3; test: Cell growth inhibition by AlamarBlue method, SKBr3; format: cell-based; settings: Homo sapiens, SK-BR-3; SKBr3, 72 hours; read-out: Cell growth inhibition values (EC50) obtained with AlamarBlue method
Description: as §2, §3, §4

| pEC50 [3] | pIC50 [4] | SMILES | other results |
| --- | --- | --- | --- |
| 6.00 | 6.05 | NC(=O)c1nc(Sc2cc3c(cc2I)OCO3)n(CCCN2CCOCC2)c1N [Example 87, 5-amino-2-[(6-iodo-1,3-benzodioxol-5-yl)thio]-1-(3-morpholin-4-ylpropyl)-1H-imidazole-4-carboxamide] | pEC50 [6]: 5.34 |
| 5.52 | 6.30 | CC(C)NCCCn1c(Sc2cc3c(cc2I)OCO3)nc(C(N)=O)c1N [Example 33, 5-amino-2-(6-iodo-benzo[1,3]dioxol-5-ylsulfanyl)-1-(3-isopropylamino-propyl)-1H-imidazole-4-carboxamide] | pEC50 ([2]; Homo sapiens, MCF7): 5.52 |

The remaining lines, values behind:

| SMILES | pEC50 [3] | pIC50 [4] | other results |
| --- | --- | --- | --- |
| Nc1ncnc2c1nc(Sc1cc3c(cc1I)OCO3)n2CCCCNC(=O)CCCCCNc1ccc([N+](=O)[O-])c2nonc12 [Example 41, 6-(7-nitro-benzo[1,2,5]oxadiazol-4-ylamino)-hexanoic acid {-4-[6-amino-8-(6-iodo-benzol[1,3]dioxol-5-ylsulfanyl)-purin-9-yl]-butyl}-amide] | – | – | pKd [1]: 7.68 |
| CCCCn1c(Sc2nc3cccc(Cl)c3s2)nc(C(N)=O)c1N [Example 48, 5-amino-1-butyl-2-(7-chloro-benzothiazol-2-ylsulfanyl)-1H-imidazole-4-carboxamide] | 4.48 | 5.56 | pEC50 ([2]; Homo sapiens, MCF7): 4.37 |
| Cc1cc(C)n2c1C=C1C=CC(CCC(=O)NCCNC(=O)CCCCCn3c(Sc4cc5c(cc4I)OCO5)nc4c(N)ncnc43)=[N+]1[B-]2(F)F [Example 37, 6-[6-amino-8-(6-iodo-benzol[1,3]dioxol-5-ylsulfanyl)-purin-9-yl]-hexanoic acid 4,4-difluoro-5,7-dimethyl-4-bora-3a,4a-diaza-s-indacene-3-propionylethylenediamide] | – | – | pKd [1]: 7.22 |
| CC(C)N(CCCn1c(Cc2cc3c(cc2I)OCO3)nc(C(N)=O)c1N)C(=O)OC(C)(C)C [Example 44, {3-[5-amino-4-carbamoyl-2-(6-iodo-benzol[1,3]dioxol-5-ylmethyl)-imidazol-1-yl]-propyl}-isopropyl-carbamic acid tert-butyl ester] | – | 5.49 | pEC50 [2]: 4.73 |
| C=CCNC1=C2C[C@@H](C)C[C@H](OC)[C@H](O)[C@@H](C)/C=C(\C)[C@H](OC(N)=O)[C@@H](OC)/C=C\C=C(/C)C(=O)NC(=CC1=O)C2=O [Example 17AAG, 17-Allylamino, 17-Demethoxygeldanamycin] | – | – | effect of Hsp90 inhibitor on client proteins and Hsp70 as described in the literature [5]: promotes degradation of its client proteins and overexpression of the co-chaperone Hsp70 |
